Where two headings read alike, the source gives them in different places.
Key:
HiDapE = target: T1, HiDapE (Haemophilus influenzae, UniProt P44514); test: ninhydrin-based DapE inhibition assay (N6-methyl-L,L-SDAP substrate); type: biochemical; settings: for IC50: from three or four % inhibition points, N-Me-SDAP substrate
T1 construct: His6 (cleaved yes); made in house
Text: To conveniently measure the inhibitory potency of test compounds against DapE, we recently developed a ninhydrin-based assay employing the unnatural but well-tolerated substrate N^6-methyl-L,L-SDAP (1b). Enzymatic cleavage of 1b affords primary amine product 3b (Figure 1), which can be quantified spectrophotometrically following treatment with ninhydrin. Importantly, this assay avoids the significant background signal that would be produced by the reaction of the primary amine in native substrate 1a with ninhydrin. […]
DapE inhibition was measured according to the method previously described. In brief, the enzymatic activity of DapE was measured in triplicate at 570 nm by the Ruhemann’s purple complex formed through the reaction of the exposed primary amine and ninhydrin. To 175 µL of 50 mM HEPES (4-(2-hydroxyethyl)-1-piperazineethanesulfonic acid) buffer at pH 7.5 with 5 µL of 1µM DapE stock solution at 30 °C, 20 µL of 10 mM monomethyl SDAP ((2S,6S)-2-(3-carboxypropanamido)-6-(methylamino)heptanedioic acid) TFA salt was added. The reaction was allowed to proceed for 10 min and quenched by heating at 100 °C for 1 min and subsequently cooling on ice for 1 min. To the cooled reaction, 2% ninhydrin reagent in 100% DMSO (final volume 300 µL) was added and subsequently heated to 80 °C for 15 min. This was quenched by placing in ice water for 2 min, and the absorbance of an 80 µL aliquot was read at 570 nm via a microplate reader. These reactions were set as 100% standard enzyme activity of DapE.

DapE = DapE (Haemophilus influenzae, UniProt P44514); test: high-throughput screen of ~33,000 compounds for DapE inhibitors; type: biochemical; settings: read-out: % inhibition of DapE in high-throughput screen
Sequence of DapE (P44514 whole entry): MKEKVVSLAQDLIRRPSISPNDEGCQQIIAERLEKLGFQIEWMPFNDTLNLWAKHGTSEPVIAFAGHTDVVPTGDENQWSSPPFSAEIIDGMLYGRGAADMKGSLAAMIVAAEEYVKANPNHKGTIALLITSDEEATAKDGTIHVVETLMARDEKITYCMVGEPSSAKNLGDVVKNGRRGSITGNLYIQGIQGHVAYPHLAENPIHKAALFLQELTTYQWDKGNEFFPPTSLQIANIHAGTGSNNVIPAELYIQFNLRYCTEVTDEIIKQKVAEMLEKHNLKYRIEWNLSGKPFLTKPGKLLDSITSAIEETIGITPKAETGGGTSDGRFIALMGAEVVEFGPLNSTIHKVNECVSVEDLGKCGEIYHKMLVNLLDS
Text: We were pleased that these two indoline hit structures provided mutual confirmation of one another. Furthermore, indolines are a privileged scaffold in medicinal chemistry, as there are several examples of indoline-containing drugs approved for a variety of treatments: advanced or transitional cell carcinoma of the urothelial tract (vinflunine), glaucoma and severe anticholinergic toxicity (physostigmine), and schizophrenia in adults (lumateperone), or are under investigation, as for benign prostatic hyperplasia (BPH). Furthermore, sulfonamides are pervasive in agrochemicals and in pharmaceuticals across therapeutic areas, and primary sulfonamides have recently been leveraged as versatile intermediates.

[1] = tested on: DapE from Haemophilus influenza (HiDapE); settings: competitive inhibitor of HiDapE; cited from earlier work
[2] = solubility at assay concentration; type: physicochemical; settings: at 200 μM; insol. = insoluble
Text: The compounds synthesized along with their DapE inhibitory potencies measured using the N-Me-SDAP substrate are summarized in Table 1. We kept the N-acetyl group as well as the 5-halogen moiety constant in this first series while varying the sulfonamide N-substituent. […] Several derivatives had poor solubility, limiting the ability to test inhibition at higher concentrations.

T1 sequence (P44514 whole entry): as above

Row | melting point [°C] | IC50 (HiDapE) [µM] | SMILES | further results
1 |  |  | CC(=O)N1CCc2cc(Br)c(S(=O)(=O)NCC(C)C)cc21 [9a, 1-Acetyl-5-Bromo-N-Isobutylindoline-6-Sulfonamide] | inhibition at 200 µM (HiDapE): 20%
2 |  | 172 | CC(=O)N1CCc2cc(Cl)c(S(=O)(=O)N3CCCC3)cc21 [10d, 1-(5-Chloro-6-(Pyrrolidin-1-Ylsulfonyl)Indolin-1-yl)ethan-1-One] | 
3 | 190 to 191 | > 200 | CC(=O)N1CCc2cc(Br)c(S(=O)(=O)NCCC(C)C)cc21 [compound 4, 1-Acetyl-5-Bromo-N-Isopentylindoline-6-Sulfonamide] | inhibition at 200 µM (HiDapE; at 200 μM, single concentration, read-out: % Inhibition): 42%; inhibition at 12 µM (DapE; at 12 μM, arbitrary hit cutoff): > 20%
4 |  |  | CC(=O)N1CCc2cc(Br)c(S(=O)(=O)NC(C)(C)C)cc21 [9d, 1-Acetyl-5-Bromo-N-(Tert-Butyl)Indoline-6-Sulfonamide] | inhibition at 100 µM (HiDapE): 39%
5 | 238 to 240 | 97 | CC(=O)N1CCc2cc(Br)c(S(=O)(=O)N3CCCC3)cc21 [9j, 1-Acetyl-5-Bromo-6-(Pyrrolidin-1-Sulfonyl) Indoline] | 
6 | 190.9 to 191.7 | 82 | COC(=O)[C@@H](NS(=O)(=O)c1cc2c(cc1Br)CCN2C(C)=O)C(C)C [9g, Methyl ((1-Acetyl-5-Bromoindolin-6-yl)Sulfonyl)Valinate] | 
7 | 199.7 to 201.4 | 44 | CC(=O)N1CCc2cc(Cl)c(S(=O)(=O)N3CCCCC3)cc21 [10c, 1-(5-Chloro-6-(Piperidin-1-Ylsulfonyl)Indolin-1-yl)Ethan-1-One] | fold more potent than corresponding 5-bromo derivative (HiDapE; 10c relative to 9i): ~ 3 ×
8 |  | 88 | CCCN(CCC)S(=O)(=O)c1cc2c(cc1Cl)CCN2C(C)=O [10e, 1-Acetyl-5-Chloro-N,N-Dipropylindoline-6-Sulfonamide] | 
9 |  |  | C[C@H](CS)C(=O)N1CCC[C@H]1C(=O)O [captopril] | IC50 [1]: 3.3 µM
10 | 226 to 228 | 162 | CC(=O)N1CCc2cc(Br)c(S(=O)(=O)NC3CCCCC3)cc21 [9b, 1-Acetyl-5-Bromo-N-Cyclohexylindoline-6-Sulfonamide] | 
11 | 215 to 218 | 86 | CC(=O)N1CCc2cc(Br)c(S(=O)(=O)N3CCc4ccccc43)cc21 [9k, 1-Acetyl-5-Bromo-6-(Indolin-1-Sulfonyl) Indoline] | 
12 |  |  | COC(=O)[C@H](Cc1ccccc1)NS(=O)(=O)c1cc2c(cc1Br)CCN2C(C)=O [9h, Methyl ((1-Acetyl-5-Bromoindolin-6-yl)Sulfonyl)-L-Phenylalaninate] | inhibition at 200 µM (HiDapE): 61%
13 |  |  | CC(=O)N1CCc2cc(Br)c(S(=O)(=O)N3CC(C)CC(C)C3)cc21 (stereo not shown) [compound 5] | inhibition at 12 µM (DapE): > 20%
14 | 195 to 196 | 99 | CCN(CC)S(=O)(=O)c1cc2c(cc1Br)CCN2C(C)=O [9n, 1-Acetyl-5-Bromo-N,N-Diethylindoline-6-Sulfonamide] | 
15 | 93.2 to 94.4 | > 200 | COCCN(CCOC)S(=O)(=O)c1cc2c(cc1Cl)CCN2C(C)=O [10f, 1-Acetyl-5-Chloro-N,N-bis(2-Methoxyethyl)Indoline-6-Sulfonamide] | 
16 | 212 to 214 | 133 | CC(=O)N1CCc2cc(Br)c(S(=O)(=O)N3CCCCC3)cc21 [9i, 1-Acetyl-5-Bromo-6-(Piperidin-1-Sulfonyl) Indoline] | 
17 |  | 54 | CC(=O)N1CCc2cc(Cl)c(S(=O)(=O)NCCC(C)C)cc21 [10a, 1-Acetyl-5-Chloro-N-Isopentylindoline-6-Sulfonamide] | fold more potent than corresponding 5-bromo derivative (HiDapE; 10a relative to 4): ~ 5 ×
18 | 190 to 193 | 118 | COC(=O)CCNS(=O)(=O)c1cc2c(cc1Br)CCN2C(C)=O [9f, Methyl 3-((1-Acetyl-5-Bromoindoline)-6-Sulfonamido)Propanoate] | 

Row | SMILES | melting point [°C] | IC50 (HiDapE) [µM] | further results
19 | COC(=O)CNS(=O)(=O)c1cc2c(cc1Br)CCN2C(C)=O [9e, 1-Acetyl-5-Bromoindolin-6-(Sulfonyl Glycine Methyl Ester)] | 179 to 182 |  | DapE inhibitory potency in words (HiDapE): nearly inactive; inhibition at 200 µM (HiDapE): 17%
20 | CC(=O)N1CCc2cc(Cl)c(S(=O)(=O)NC3CCCCC3)cc21 [10b, 1-Acetyl-5-Chloro-N-Cyclohexylindoline-6-Sulfonamide] | 230 to 230.5 |  | inhibition at 200 µM (HiDapE): 58%
21 | COCCN(CCOC)S(=O)(=O)c1cc2c(cc1Br)CCN2C(C)=O [9m, 1-Acetyl-5-Bromo-N,N-bis(2-Methoxyethyl)Indoline-6-Sulfonamide] | 110 to 111 |  | DapE inhibitory potency in words (HiDapE): significantly less potent; inhibition at 100 µM (HiDapE): 26%
22 | CC(=O)N1CCc2cc(Br)c(S(=O)(=O)NCc3ccccc3)cc21 [9c, 1-Acetyl-N-Benzyl-5-Bromoindoline-6-Sulfonamide] | 205 to 208 |  | inhibition at 200 µM (HiDapE): 56%
23 | CCCN(CCC)S(=O)(=O)c1cc2c(cc1Br)CCN2C(C)=O [9l, 1-Acetyl-5-Bromo-N,N-Dipropylindoline-6-Sulfonamide] | 118 to 120 |  | DapE inhibitory potency in words (HiDapE): significantly less potent; inhibition at 20 µM (HiDapE): 5%; solubility in the DapE assay [2]: insol.

Reference: article PMC7560015, “Indoline-6-Sulfonamide Inhibitors of the Bacterial Enzyme DapE” (Antibiotics, 2020)
